Measured values: patent publication US10597388B2, “Pyridazinone herbicides” (FMC CORPORATION, priority 2014, dated 2020)

Tests used:
Assay in all cases: Test D controlled growth environment herbicide test, pre- and postemergence
Assay type in all cases: in vivo
[1] = test system: oilseed rape (Brassica napus)
How it was run: (§1)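 Rating is visual, 0–100 scale (100 = complete control), made against untreated plants 14–21 d after treatment in controlled growth conditions. Postemergence sprays went onto 1- to 4-leaf plants in peat medium; preemergence sprays onto silt loam after sowing; formulation included a surfactant.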

[2] = test system: field poppy (Papaver rhoeas)
How it was run: as §1

[3] = test system: foxtail, green (green foxtail, Setaria viridis)
How it was run: as §1

[4] = test system: chickweed (common chickweed, Stellaria media)
How it was run: as §1

[5] = test system: galium (catchweed bedstraw, Galium aparine)
How it was run: as §1

[6] = test system: lambsquarters (Chenopodium album)
How it was run: as §1

[7] = test system: wheat, spring (spring wheat, Triticum aestivum)
How it was run: as §1

[8] = test system: bromegrass, downy (downy bromegrass, Bromus tectorum)
How it was run: as §1

[9] = test system: blackgrass (Alopecurus myosuroides)
How it was run: as §1

[10] = test system: canarygrass (Phalaris minor)
How it was run: as §1

[11] = test system: kochia (Kochia scoparia)
How it was run: as §1

[12] = test system: deadnettle (henbit deadnettle, Lamium amplexicaule)
How it was run: as §1

[13] = test system: barley, spring (spring barley, Hordeum vulgare)
How it was run: as §1

[14] = test system: chamomile (scentless chamomile, Matricaria inodora)
How it was run: as §1

[15] = Postemergence, 31 g ai/ha, scale 0 to 100 (0 no effect, 100 complete control)
[16] = Postemergence, 125 g ai/ha, visual rating on scale 0 (no effect) to 100 (complete control), 14 to 21 d
[17] = Postemergence, 250 g ai/ha, scale 0 to 100 (0 no effect, 100 complete control)
[18] = Preemergence, 62 g ai/ha, scale 0 to 100 (0 no effect, 100 complete control)
[19] = Preemergence, 125 g ai/ha, scale 0 to 100 (0 no effect, 100 complete control)
[20] = Preemergence, 250 g ai/ha, scale 0 to 100, 0 no effect, 100 complete control
[21] = postemergence, 62 g ai/ha, scale 0 to 100, 0 no effect, 100 complete control

With Cn1nc(Br)c(O)c(-c2cccc3ccccc23)c1=O [Compound 20] the “Oilseed Rape plant response rating” value [1, 15] was 0, the “Plant response rating, Oilseed Rape” value [1, 16] was 5 and the “Plant response rating, Oilseed Rape” value [1, 17] was 5. The “Plant response rating (scale of 0 to 100), Oilseed Rape” value ([1]; Preemergence, 31 g ai/ha) was 0, the “Plant response rating, Oilseed Rape” value [1, 18] was 0 and the “Plant response rating, Oilseed Rape” value [1, 19] was 0. For the same compound, the “Plant response rating, Oilseed Rape” value [1, 20] was 0, the “Plant response rating, Oilseed Rape” value [1, 21] was 0 and the “Field Poppy plant response rating” value [2, 15] was 30. For the same compound, the “Plant response rating, Field Poppy” value [2, 16] was 100, the “Plant response rating, Field Poppy” value [2, 17] was 100 and the “Plant response rating (scale of 0 to 100), Field Poppy” value ([2]; Preemergence, 31 g ai/ha) was 70. The “Plant response rating, Field Poppy” value [2, 18] was 70, the “Plant response rating, Field Poppy” value [2, 19] was 95 and the “Plant response rating, Field Poppy” value [2, 20] was 100. The “Plant response rating, Field Poppy” value [2, 21] was 60, the “Foxtail, Green plant response rating” value [3, 15] was 15 and the “Plant response rating, Foxtail, Green” value [3, 16] was 40. For the same compound, the “Plant response rating, Foxtail, Green” value [3, 17] was 70, the “Plant response rating (scale of 0 to 100), Foxtail, Green” value ([3]; Preemergence, 31 g ai/ha) was 25 and the “Plant response rating, Foxtail, Green” value [3, 18] was 60. The “Plant response rating, Foxtail, Green” value [3, 19] was 75, the “Plant response rating, Foxtail, Green” value [3, 20] was 85 and the “Plant response rating, Foxtail, Green” value [3, 21] was 35. For the same compound, the “Chickweed plant response rating” value [4, 15] was 90, the “Plant response rating, Chickweed” value [4, 16] was 100 and the “Plant response rating, Chickweed” value [4, 17] was 100. For the same compound, the “Plant response rating (scale of 0 to 100), Chickweed” value ([4]; Preemergence, 31 g ai/ha) was 85, the “Plant response rating, Chickweed” value [4, 18] was 95 and the “Plant response rating, Chickweed” value [4, 19] was 95. For the same compound, the “Plant response rating, Chickweed” value [4, 20] was 95, the “Plant response rating, Chickweed” value [4, 21] was 100 and the “Galium plant response rating” value [5, 15] was 70. For the same compound, the “Plant response rating, Galium” value [5, 16] was 100, the “Plant response rating, Galium” value [5, 17] was 100 and the “Plant response rating (scale of 0 to 100), Galium” value ([5]; Preemergence, 31 g ai/ha) was 10. The “Plant response rating, Galium” value [5, 18] was 30, the “Plant response rating, Galium” value [5, 19] was 75 and the “Plant response rating, Galium” value [5, 20] was 85. For the same compound, the “Plant response rating, Galium” value [5, 21] was 75, the “Lambsquarters plant response rating” value [6, 15] was 85 and the “Plant response rating, Lambsquarters” value [6, 16] was 90. The “Plant response rating, Lambsquarters” value [6, 17] was 95, the “Plant response rating (scale of 0 to 100), Lambsquarters” value ([6]; Preemergence, 31 g ai/ha) was 75 and the “Plant response rating, Lambsquarters” value [6, 18] was 90. For the same compound, the “Plant response rating, Lambsquarters” value [6, 19] was 100, the “Plant response rating, Lambsquarters” value [6, 20] was 100 and the “Plant response rating, Lambsquarters” value [6, 21] was 85. The “Wheat, Spring plant response rating” value [7, 15] was 0, the “Plant response rating, Wheat, Spring” value [7, 16] was 15 and the “Plant response rating, Wheat, Spring” value [7, 17] was 20. The “Plant response rating (scale of 0 to 100), Wheat, Spring” value ([7]; Preemergence, 31 g ai/ha) was 0, the “Plant response rating, Wheat, Spring” value [7, 18] was 15 and the “Plant response rating, Wheat, Spring” value [7, 19] was 25. The “Plant response rating, Wheat, Spring” value [7, 20] was 45, the “Plant response rating, Wheat, Spring” value [7, 21] was 15 and the “Bromegrass, Downy plant response rating” value [8, 15] was 0. The “Plant response rating, Bromegrass, Downy” value [8, 16] was 10, the “Plant response rating, Bromegrass, Downy” value [8, 17] was 15 and the “Plant response rating (scale of 0 to 100), Bromegrass, Downy” value ([8]; Preemergence, 31 g ai/ha) was 15. The “Plant response rating, Bromegrass, Downy” value [8, 18] was 35, the “Plant response rating, Bromegrass, Downy” value [8, 19] was 40 and the “Plant response rating, Bromegrass, Downy” value [8, 20] was 45. The “Plant response rating, Bromegrass, Downy” value [8, 21] was 10, the “Blackgrass plant response rating” value [9, 15] was 15 and the “Plant response rating, Blackgrass” value [9, 16] was 50. For the same compound, the “Plant response rating, Blackgrass” value [9, 17] was 60, the “Plant response rating (scale of 0 to 100), Blackgrass” value ([9]; Preemergence, 31 g ai/ha) was 20 and the “Plant response rating, Blackgrass” value [9, 18] was 40. For the same compound, the “Plant response rating, Blackgrass” value [9, 19] was 60, the “Blackgrass plant response rating” value [9, 20] was 75 and the “Plant response rating, Blackgrass” value [9, 21] was 40. The “Canarygrass plant response rating” value [10, 15] was 10, the “Plant response rating, Canarygrass” value [10, 16] was 45 and the “Plant response rating, Canarygrass” value [10, 17] was 55. The “Plant response rating (scale of 0 to 100), Canarygrass” value ([10]; Preemergence, 31 g ai/ha) was 25, the “Plant response rating, Canarygrass” value [10, 18] was 35 and the “Plant response rating, Canarygrass” value [10, 19] was 70. For the same compound, the “Plant response rating, Canarygrass” value [10, 20] was 80, the “Plant response rating, Canarygrass” value [10, 21] was 30 and the “Kochia plant response rating” value [11, 15] was 35. For the same compound, the “Plant response rating, Kochia” value [11, 16] was 85, the “Plant response rating, Kochia” value [11, 17] was 100 and the “Plant response rating (scale of 0 to 100), Kochia” value ([11]; Preemergence, 31 g ai/ha) was 0. For the same compound, the “Plant response rating, Kochia” value [11, 18] was 25, the “Plant response rating, Kochia” value [11, 19] was 70 and the “Plant response rating, Kochia” value [11, 20] was 90. The “Plant response rating, Kochia” value [11, 21] was 65, the “Deadnettle plant response rating” value [12, 15] was 25 and the “Plant response rating, Deadnettle” value [12, 16] was 55. The “Plant response rating, Deadnettle” value [12, 17] was 65, the “Plant response rating (scale of 0 to 100), Deadnettle” value ([12]; Preemergence, 31 g ai/ha) was 0 and the “Plant response rating, Deadnettle” value [12, 18] was 0. For the same compound, the “Plant response rating, Deadnettle” value [12, 19] was 10, the “Plant response rating, Deadnettle” value [12, 20] was 20 and the “Plant response rating, Deadnettle” value [12, 21] was 35. For the same compound, the “Plant response rating, Barley, Spring” value [13, 15] was 0, the “Plant response rating, Barley, Spring” value [13, 16] was 0 and the “Plant response rating, Barley, Spring” value [13, 17] was 0. For the same compound, the “Plant response rating (scale of 0 to 100), Barley, Spring” value ([13]; Preemergence, 31 g ai/ha) was 0, the “Plant response rating, Barley, Spring” value [13, 18] was 0 and the “Plant response rating, Barley, Spring” value [13, 19] was 0. The “Barley, Spring plant response rating” value [13, 20] was 0, the “Plant response rating, Barley, Spring” value [13, 21] was 0 and the “Chamomile plant response rating” value [14, 15] was 70. For the same compound, the “Plant response rating, Chamomile” value [14, 16] was 100, the “Plant response rating, Chamomile” value [14, 17] was 100 and the “Plant response rating, Chamomile” value [14, 21] was 95.
